Experimental data from US6787359B1, “Gene transfer methods” (Takara Shuzo Co., Ltd., priority 1998, dated 2004).

Experiments:
[1] = test system: mouse leukemia L1210 cells; assay: Gene transfer with PM5neo virus on coated plates, G418-resistant cells by WST-1 absorbance; assay type: cell-based; conditions: for Absorbance difference (450 nm-650 nm), G418-resistant cells: Experiment 2
Description: 50 μl of […] solution of H-271, H-296, C-274, CH-271, CH-296, ColV, human basic fibroblast growth factor (bFGF; Progen), tenascin (Gibco) or epidermal growth factor (EGF; Takara Shuzo), or 50 μl of 2% bovine serum albumin (BSA, Sigma) was added to each well of a 96-well non-treated microplate for cell culture (Falcon). The plate was allowed to stand at 4° C. overnight and then washed twice with phosphate buffered saline (PBS; Roman Kogyo). Alternatively, after the plate was treated as described above, 0.1 ml of 4 mg/ml solution of 1-ethyl-3-dimethylaminopropylcarbodiimide hydrochloride (Sigma) in sterile pure water was dispensed to each well. The reaction was allowed to proceed at 37° C. for 2 hours. The plate was washed extensively with pure water to prepare a carbodiimide-treated plate. These plates were stored at 4° C. until viral infection experiments were conducted.
10^4 mouse leukemia L1210 cells (ATCC CCL-219), which had been grown in RPMI 1640 medium (Bio Whittaker) supplemented with 10% FCS, 50 units/ml penicillin and 50 μg/ml streptomycin, and 50 μl of PM5neo virus supernatant (10^4 cfu/ml) were added to the well of the microplate. After the plate was incubated for 24 hours, the medium was changed to the same medium containing G418 (Gibco) at a final concentration of 0.75 mg/ml, and the plate was then incubated for additional 48 hours. G418-resistance cells were assessed according to the method as described in S. Kim et al. [Gene Therapy, 3:1018-1020 (1996)] with a partial modification in which color developed using Premix WST-1 reagent (Takara Shuzo) was measured as absorbance at 450 nm. […] Absorbance at 450 nm and 650 nm was then measured using a microplate reader, and the difference (450 nm-650 nm) was calculated. The value obtained using a plate coated with 2% BSA without carbodiimide treatment was defined as background.

[2] = test system: HL-60 cells; assay type: cell-based, human; conditions: no washing
Description: (§1) Recombinant retrovirus-producer cells obtained by introducing a retrovirus vector plasmid pLEIN into φCRIP cells were cultured in DMEM containing 10% CS. When the cells grew to semi-confluence in a 10-cm plate, the medium was changed to 7 ml of RPMI 1640 containing 10% FCS or 7 ml of RPMI 1640 containing 5 mM sodium butyrate (Nacalai Tesque) and 10% FCS. After the cells were cultured for 24 hours, supernatants were filtered through 0.45 μm filters to obtain virus supernatants. The titer of the virus supernatant was determined as described in Example 2. The titer of the virus supernatant without sodium butyrate was 3.3×10^4 cfu/ml, whereas the titer of the virus supernatant containing 5 mM sodium butyrate was 2×10^6 cfu/ml.
HL-60 cells were used as target cells. 0.5 ml of the above-mentioned virus supernatant was added to each well of a plate coated with CH-296 as described in Example 12. The plate was incubated at 37° C. for 3 hours for contacting and binding the virus particles with CH-296. After incubation, the plate was […]. 0.5 ml of RPMI 1640 medium supplemented with 10% FCS containing 5×10^4 HL-60 cells was added to the well. As a control, 5×10^4 HL-60 cells were suspended in 0.5 ml of the above-mentioned virus supernatant and then immediately added to the plate coated with CH-296. These plates were incubated at 37° C. overnight to allow the virus to infect cells. After the incubation, 1 ml of RPMI 1640 medium containing 10% FCS was added to the well. The plate was incubated for additional 48 hours. The cell number was then counted.

[3] = test system: NIH/3T3 cells; assay: Titer of virus supernatant of producer cells cultured with sodium butyrate; assay type: cell-based; conditions: φCRIP/pLEIN producer cells cultured 24 hours with 5 mM sodium butyrate; without: 3.3×10^4 cfu/ml
Description: The titer of the virus supernatant was measured according to a standard method [J. Virol., 62:1120-1124 (1988)] in which the efficiency of transferring a neomycin phosphotransferase gene into NIH/3T3 cells (ATCC CRL-1658) is used as an index. The number of infectious particles contained in 1 ml of the supernatant (cfu/ml) was calculated. The amount of the virus supernatant to be added in the experiments hereinbelow was determined based on the calculated value, i.e., the titer of the supernatant.
as §1

[4] = test system: L1210 cells; assay: Eco-EGFP gene transfer on plates with covalently immobilized CH-271 and (Mannose)9-(GlucNAc)2-Asn; assay type: cell-based, mouse; conditions: wells with sugar chain and CH-271 immobilized
Description: A microplate to which CH-271 and (Mannose)9-(GlucNAc)2-Asn were immobilized through covalent bonds was prepared. […] 50 μl each of solutions containing 2% BSA or 80 μg/ml of CH-271 as well as (Mannose)9-(GlucNAc)2-Asn at a varying concentration was added to each well of the activated 96-well Carboplate. The plate was subjected to immobilization reaction at 37° C. for 2 hours. The plate was blocked using 0.2% glycine solution at 4° C. for 15 hours and then used for the following gene transfer experiments.
10^3 L1210 cells and 0.1 ml Eco-EGFP virus supernatant (10^6 cfu/ml) were added to the well of the microplate. After the plate was incubated for 48 hours, 0.1 ml of fresh RPMI 1640 medium containing FCS, penicillin and streptomycin was added to the well. The plate was incubated for additional 24 hours. The cells were collected and washed. The gene transfer efficiency was calculated as described in Example 4.

[5] = test system: L1210 cells; assay: Eco-EGFP gene transfer with laminin and virus-binding substance, flow cytometry; assay type: cell-based, mouse; conditions: no CH-296/CH-271
Description: Mouse laminin (Gibco) or human laminin (Takara Shuzo) was used in combination with a functional substance having an activity of binding to a virus to carry out gene transfer experiment. A 24-well non-treated microplate for cell culture (Falcon) used in the experiment was coated with these functional substances according to the following two methods.
The cocktail method: A mixture of two functional substances is added to the plate. The plate is allowed to stand at 4° C. overnight. The plate is blocked with 2% BSA at 37° C. for 20 minutes and then washed with PBS.
The pre-coating method: A solution of a functional substance having an activity of binding to a virus is added to the plate. The plate is allowed to stand at 4° C. overnight. The solution is removed. A laminin solution is added to the plate. The plate is incubated at 37° C. for 2 hours, blocked with 2% BSA, and then washed with PBS.
0.5 ml of the solution of the functional substance was used to coat each well. 10^5 L1210 cells and 0.5 ml of Eco-EGFP virus supernatant (10^5 cfu/ml) were added to the well. The plate was incubated for 24 hours. After incubation, the cells were collected by using a cell detachment buffer (Bio Whittaker) and washed. EGFP-expressing cells were analyzed by flow cytometry using FACSVantage (Becton Dickinson) at an excitation wavelength of 488 nm and an emission wavelength of 515-545 nm. The gene transfer efficiency (the ratio of EGFP-expressing cells to total cells) was calculated.

[6] = test system: mouse leukemia L1210 cells; assay: Effect of sugar chain-cleaving enzymes on CH-271/laminin plates, PM5neo gene transfer, G418-resistant cells; assay type: cell-based
Description: A 96-well microplate was coated using 50 μl/well of a mixture containing 5 μg/ml of mouse laminin and 80 μg/ml of CH-271 as described in Example 5. Effects of treatment of the plate with various enzymes having activities of cleaving sugar chains on gene transfer efficiency were examined.
Plates were treated with enzymes as follows: Enzyme solutions containing 500 mU/ml O-glycanase (endo-α-N-acetylgalactosaminidase, Seikagaku Corp.), 500 mU/ml endoglycosidase H (endo-β-N-acetylglucosaminidase H, Seikagaku Corp.), 250 mU/ml endo-β-galactosidase (Seikagaku Corp.) and 2 mU/ml α-mannosidase (Seikagaku Corp.) in 50 mM citrate-phosphate buffer (pH 5.0) were prepared. An enzyme solution containing 250 mU/ml glycopeptidase F (peptide: N-glycosidase F, Takara Shuzo) in 100 mM tris-hydrochloride buffer (pH 8.6) was prepared. 50 μl each of the enzyme solutions was dispensed in each well for reacting at 37° C. for 20 hours. The plate was then washed three times with PBS and then used for viral infection experiments. 10^4 mouse leukemia L1210 cells grown in RPMI 1640 medium supplemented with 10% FCS, 50 units/ml penicillin and […], and 50 μl of PM5neo virus supernatant (10^4 cfu/ml) were added to each well of the microplate. The plate was incubated for 24 hours. […] G418-resistance cells were assessed as described in Example 3.

[7] = plate treated with carbodiimide
[8] = Control: cells suspended in supernatant with sodium butyrate, added to CH-296 plate

bFGF: human basic fibroblast growth factor (Progen)
Absorbance difference (450 nm-650 nm), G418-resistant cells [1, 7]: 0.580 ± 0.046 | Absorbance difference (450 nm-650 nm), G418-resistant cells ([1]; plate untreated): 0.425 ± 0.014 | Gene transfer efficiency (in words) ([1]; known virus-binding substances, Table 1): increase in gene transfer efficiency was observed

Tenascin: tenascin (Gibco)
Absorbance difference (450 nm-650 nm), G418-resistant cells [1, 7]: 0.323 ± 0.037 | Absorbance difference (450 nm-650 nm), G418-resistant cells ([1]; plate untreated): 0.060 ± 0.021 | Appearance of G418-resistant cells (in words) ([1]; carbodiimide treatment carried out): increased

CCCC(=O)[O-].[Na+] [sodium butyrate]
Cell number (cells/plate) [2, 8]: 4.0 x 10^5 cells/plate | Gene transfer efficiency (%) [2, 8]: 35.46% | Viable cell number relative to supernatant without sodium butyrate ([2]; control group): one fourth | Titer of the virus supernatant [3]: 2×10^6 cfu/ml

(Mannose)9-(GlucNAc)2-Asn
Gene transfer efficiency (in words) [4]: increased depending on the concentration of sugar chain used

laminin
Gene transfer efficiency ([5]; laminin 5 μg/ml alone): 4.09% | Gene transfer efficiency ([5]; laminin 10 μg/ml alone): 6.76% | Gene transfer efficiency ([5]; laminin 20 μg/ml alone): 6.89% | Gene transfer-promoting effect of laminin after enzyme treatment (in words) ([6]; treatment of the plate with endoglycosidase H): completely abolished | Gene transfer efficiency after enzyme treatment (in words) ([6]; treatment of the plate with α-mannosidase or glycopeptidase F): decreased the gene transfer efficiency in some degree
